Measured values published in patent EP0412158A1, “ONCOSTATIC DRUG” (priority 1987, dated 1988).
Like-named read-outs stand apart in the source and are kept apart here. Marks after values point to notes of the source that are not given here.

System: human lung cancer (OAT)
Format: in vivo, female nude mice
Conditions: 200 mg/kg ip ×10; for T/C: tumor volume
Experimental: A patch of human lung cancer [Cancer cells recommended by National Cancer Institute (NCL) of the U.S.A.] (OAT) measuring approximately 2 x 2 mm in area was subcutaneously transplanted to each of female nude mice. An aqueous solution containing the aforementioned heteropoly acid salt (Compound M) in a concentration of 10 mg/ml was administered by intraperitoneal injection (ip) to the mice at a dose of 200 mg/kg once per day for 10 consecutive days following the 12th day of transplantation. For 15 days following the stop of the administration, the volumes of tumor in the mice were measured to evaluate the effect of compound. At ip (x 10), significant suppression of hyperplasia began to appear about the 4th day. Even after completion of the administration 25th day of the transplantation, strong suppression of hyperplasia of cancer of about 50% was maintained. Generally by the NCI standard, a ratio of suppression exceeding 50% is rated as effective. Thus, the compound was confirmed to be effective. For comparison, mice to which no aqueous solution was administered were similarly tested.

Substance: Nas [IMo6O24] • 34H2O [Compound M]
- suppression of hyperplasia of cancer (after completion of the administration, 25th day): about 50%
- Volume of tumor, Average value±SE (day 1): 457.6±59.3 mm3
- Volume of tumor, Average value±SE (day 2): 501.7±32.9 mm3
- T/C (day 2): 65.2* %
- Volume of tumor, Average value±SE (day 3): 617.0±165.7 mm3
- T/C (day 3): 58.3%
- Volume of tumor, Average value±SE (day 4): 610.0±118.1 mm3
- T/C (day 4): 40.9** %
- Volume of tumor, Average value±SE (day 5): 711.2±109.2 mm3
- T/C (day 5): 40.8** %
- Volume of tumor, Average value±SE (day 6): 1003.6±188.6 mm3
- T/C (day 6): 39.9** %
- Volume of tumor, Average value±SE (day 7): 1033.6±121.5 mm3
- T/C (day 7): 26.0** %
- Volume of tumor, Average value±SE (day 8): 1257.8±166.2 mm3
- T/C (day 8): 27.7** %
- Volume of tumor, Average value±SE (day 12): 2366.6±364.0 mm3
- T/C (day 12): 41.6** %
- Volume of tumor, Average value±SE (day 15): 4493.2±562.2 mm3
- T/C (day 15): 48.0** %
- Volume of tumor, Average value±SE (day 19): 5735.0±1038.1 mm3
- T/C (day 19): 43.3** %
- Volume of tumor, Average value±SE (day 22): 8493.2±1352.2 mm3
- T/C (day 22): 54.8** %
- Volume of tumor, Average value±SE (day 25): 9672.6±1638.0 mm3
- T/C (day 25): 53.2** %
